Assays:
delta opioid receptor = biological target: T1, delta opioid receptor (Rattus norvegicus, UniProt P33533); assay: Rat Brain Delta Opioid Receptor Binding Assay; settings: rat forebrain membrane preparation; [3H]DPDPE or [3H]naltrindole, 25° C., 2.5 h
T1 construct: from tissue; host or cells: rat forebrain homogenate (male Wistar rats), particulate membrane preparation

mu opioid receptor = biological target: T2, mu opioid receptor (Rattus norvegicus, UniProt P33535); assay: Rat Brain Mu Opioid Receptor Binding Assay; settings: rat forebrain membrane preparation; [3H]DAMGO, 25° C., 2.5 h
T2 construct: Following incubation with the mu selective peptide ligand, ˜0.8 nM [^3H]DAMGO; from tissue; host or cells: rat forebrain homogenate (male Wistar rats), particulate membrane preparation
T2 sequence (P33535 whole entry): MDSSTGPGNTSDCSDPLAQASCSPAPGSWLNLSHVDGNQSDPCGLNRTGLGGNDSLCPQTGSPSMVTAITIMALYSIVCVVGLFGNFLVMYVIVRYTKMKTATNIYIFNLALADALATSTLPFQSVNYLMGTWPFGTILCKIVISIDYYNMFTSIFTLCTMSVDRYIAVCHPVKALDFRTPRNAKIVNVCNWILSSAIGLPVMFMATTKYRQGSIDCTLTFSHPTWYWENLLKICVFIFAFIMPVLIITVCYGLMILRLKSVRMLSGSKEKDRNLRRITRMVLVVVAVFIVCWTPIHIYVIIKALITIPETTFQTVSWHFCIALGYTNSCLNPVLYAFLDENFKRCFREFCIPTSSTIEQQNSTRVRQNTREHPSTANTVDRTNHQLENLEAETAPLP

T1 sequence (P33533 whole entry): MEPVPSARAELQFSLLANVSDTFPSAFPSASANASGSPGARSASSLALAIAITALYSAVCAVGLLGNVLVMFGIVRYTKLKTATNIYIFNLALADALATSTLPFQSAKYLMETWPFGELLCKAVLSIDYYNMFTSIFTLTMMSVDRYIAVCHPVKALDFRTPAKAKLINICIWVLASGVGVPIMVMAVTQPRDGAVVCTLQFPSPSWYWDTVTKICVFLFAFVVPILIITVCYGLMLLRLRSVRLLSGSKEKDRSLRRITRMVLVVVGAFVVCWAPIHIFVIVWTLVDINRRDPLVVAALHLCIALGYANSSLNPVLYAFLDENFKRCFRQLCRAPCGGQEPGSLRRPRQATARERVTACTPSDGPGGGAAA

Row | SMILES | Ki (delta opioid receptor) [nM] | Ki (mu opioid receptor) [nM]
1 | c1ccc(CCN2[C@@H]3CC[C@H]2CC(N2c4ccccc4Oc4cc(-c5nnn[nH]5)ccc42)C3)cc1 (stereo partly drawn) [Compound 7b, Endo-10-(8-Phenethyl-8-aza-bicyclo[3.2.1]oct-3-yl)-3-(1H-tetrazol-5-yl)-10H-phenoxazine] | 5480 | 288
2 | N#Cc1ccc2c(c1)Oc1ccccc1N2[C@H]1C[C@H]2CC[C@@H](C1)N2 [Compound 8b, Endo-10-(8-Aza-bicyclo[3.2.1]oct-3-yl)-10H-phenoxazine-3-carbonitrile] | 1900 | > 10000
3 | O=c1[nH]c(-c2ccc3c(c2)Oc2ccccc2N3[C@H]2C[C@H]3CC[C@@H](C2)N3CCc2ccccc2)no1 [Compound 7d, Endo-3-[10-(8-Phenethyl-8-aza-bicyclo[3.2.1]oct-3-yl)-10H-phenoxazin-3-yl]-4H-[1,2,4]oxadiazol-5-one] | 2630 | 123
4 | c1ccc2c(c1)Oc1cc(-c3ccncc3)ccc1N2[C@@H]1C[C@H]2CC[C@@H](C1)N2Cc1ccoc1 [Compound 5m, Exo-10-(8-Furan-3-ylmethyl-8-aza-bicyclo[3.2.1]oct-3-yl)-3-pyridin-4-yl-10H-phenoxazine] | 1280 | 
5 | c1cncc(-c2ccc3c(c2)Sc2ccccc2N3C2C[C@H]3CC[C@@H](C2)N3Cc2ccoc2)c1 (mixture of isomers) [Compound 6i, 10-(8-Furan-3-ylmethyl-8-aza-bicyclo[3.2.1]oct-3-yl)-3-pyridin-3-yl-10H-phenothiazine] | 282 | 1060
6 | COC(=O)c1ccc2c(c1)Oc1ccccc1N2C1CC2CCC(C1)N2C (stereo not drawn) [Compound 2a, 10-(8-Methyl-8-aza-bicyclo[3.2.1]oct-3-yl)-10H-phenoxazine-3-carboxylic acid methyl ester] | 697 | 5150
7 | c1ccc(CCN2[C@@H]3CC[C@H]2C[C@H](N2c4ccccc4Oc4cc(-c5ccncc5)ccc42)C3)cc1 [Compound 3m, Exo-10-(8-Phenethyl-8-aza-bicyclo[3.2.1]oct-3-yl)-3-pyridin-4-yl-10H-phenoxazine] | 480 | 
8 | c1ccc2c(c1)Oc1cc(-c3ccncc3)ccc1N2[C@@H]1C[C@H]2CC[C@@H](C1)N2 [Compound 2m, Exo-10-(8-Aza-bicyclo[3.2.1]oct-3-yl)-3-pyridin-4-yl-10H-phenoxazine] | 634 | 
9 | COc1cccc2c1Oc1cc(-c3ccncc3)ccc1N2[C@H]1C[C@H]2CC[C@@H](C1)N2CCc1ccccc1 [Compound 13v, Endo-6-Methoxy-10-(8-phenethyl-8-aza-bicyclo[3.2.1]oct-3-yl)-3-pyridin-4-yl-10H-phenoxazine] | > 10000 | 
10 | c1ccc(CCN2[C@@H]3CC[C@H]2C[C@@H](N2c4ccccc4Oc4cc(-c5cccnc5)ccc42)C3)cc1 [Compound 6j, Endo-10-(8-Phenethyl-8-aza-bicyclo[3.2.1]oct-3-yl)-3-pyridin-3-yl-10H-phenoxazine] | 3260 | 
11 | CC(=O)Nc1ccccc1-c1ccc2c(c1)Sc1ccccc1N2C1C[C@H]2CC[C@@H](C1)N2C (mixture of isomers) [Compound 16i, N-{2-[10-(8-Methyl-8-aza-bicyclo[3.2.1]oct-3-yl)-10H-phenothiazin-3-yl]-phenyl}-acetamide] | 1450 | 2650
12 | c1csc(CN2[C@@H]3CC[C@H]2CC(N2c4ccccc4Sc4cc(-c5ccncc5)ccc42)C3)c1 (mixture of isomers) [Compound 12i, 3-Pyridin-4-yl-10-(8-thiophen-2-ylmethyl-8-aza-bicyclo[3.2.1]oct-3-yl)-10H-phenothiazine] | 491 | 1450
13 | CC(=O)Nc1ccccc1-c1ccc2c(c1)Sc1ccccc1N2C1C[C@H]2CC[C@@H](C1)N2CCc1ccccc1 (mixture of isomers) [Compound 14i, N-{2-[10-(8-Phenethyl-8-aza-bicyclo[3.2.1]oct-3-yl)-10H-phenothiazin-3-yl]-phenyl}-acetamide] | 1600 | 599
14 | c1ccc(CCN2[C@@H]3CC[C@H]2C[C@H](N2c4ccccc4Oc4cc(-c5cccnc5)ccc42)C3)cc1 [Compound 4l, Exo-10-(8-Phenethyl-8-aza-bicyclo[3.2.1]oct-3-yl)-3-pyridin-3-yl-10H-phenoxazine] | 425 | 
15 | c1ccc2c(c1)Oc1cc(-c3ccncc3)ccc1N2[C@H]1C[C@H]2CC[C@@H](C1)N2 [Compound 2k, Endo-10-(8-Aza-bicyclo[3.2.1]oct-3-yl)-3-pyridin-4-yl-10H-phenoxazine] | 696 | 
16 | c1cncc(-c2ccc3c(c2)Oc2ccccc2N3[C@H]2C[C@H]3CC[C@@H](C2)N3Cc2cccs2)c1 [Compound 9j, Endo-3-Pyridin-3-yl-10-(8-thiophen-2-ylmethyl-8-aza-bicyclo[3.2.1]oct-3-yl)-10H-phenoxazine] | 11900 | 
17 | CC(=O)Nc1ccccc1-c1ccc2c(c1)Oc1ccccc1N2[C@H]1C[C@H]2CC[C@@H](C1)N2CCc1ccccc1 [Compound 3x, Endo-N-{2-[10-(8-Phenethyl-8-aza-bicyclo[3.2.1]oct-3-yl)-10H-phenoxazin-3-yl]-phenyl}-acetamide] | 1590 | 

Row | SMILES | Ki (delta opioid receptor) [nM] | Ki (mu opioid receptor) [nM]
18 | c1ccc(CN2[C@@H]3CC[C@H]2C[C@@H](N2c4ccccc4Oc4cc(-c5cccnc5)ccc42)C3)nc1 [Compound 7j, Endo-3-Pyridin-3-yl-10-(8-pyridin-2-ylmethyl-8-aza-bicyclo[3.2.1]oct-3-yl)-10H-phenoxazine] | 104 | 
19 | c1ccc(CN2[C@@H]3CC[C@H]2C[C@H](N2c4ccccc4Oc4cc(-c5ccncc5)ccc42)C3)nc1 [Compound 4m, Exo-3-Pyridin-4-yl-10-(8-pyridin-2-ylmethyl-8-aza-bicyclo[3.2.1]oct-3-yl)-10H-phenoxazine] | 869 | 
20 | CCN(CC)C(=O)c1ccc2c(c1)Oc1ccccc1N2[C@@H]1C[C@H]2CC[C@@H](C1)N2CCc1ccccc1 [Compound 3u, Exo-10-(8-Phenethyl-8-aza-bicyclo[3.2.1]oct-3-yl)-10H-phenoxazine-3-carboxylic acid diethylamide] | 1360 | 
21 | CC(C)=CCN1[C@@H]2CC[C@H]1CC(N1c3ccccc3Sc3cc(-c4cccnc4)ccc31)C2 (mixture of isomers) [Compound 8i, 10-[8-(3-Methyl-but-2-enyl)-8-aza-bicyclo[3.2.1]oct-3-yl]-3-pyridin-3-yl-10H-phenothiazine] | 444 | 889
22 | c1ccc(CN2[C@@H]3CC[C@H]2C[C@H](N2c4ccccc4Oc4cc(-c5cccnc5)ccc42)C3)nc1 [Compound 5l, Exo-3-Pyridin-3-yl-10-(8-pyridin-2-ylmethyl-8-aza-bicyclo[3.2.1]oct-3-yl)-10H-phenoxazine] | 539 | 
23 | c1ccc2c(c1)Oc1cc(-c3ccncc3)ccc1N2[C@H]1C[C@H]2CC[C@@H](C1)N2Cc1ccoc1 [Compound 5k, Endo-10-(8-Furan-3-ylmethyl-8-aza-bicyclo[3.2.1]oct-3-yl)-3-pyridin-4-yl-10H-phenoxazine] | 247 | 
24 | Oc1cccc2c1Oc1cc(-c3ccncc3)ccc1N2[C@H]1C[C@H]2CC[C@@H](C1)N2CCc1ccccc1 [Compound 10v, Endo-10-(8-Phenethyl-8-aza-bicyclo[3.2.1]oct-3-yl)-7-pyridin-4-yl-10H-phenoxazin-4-ol] | > 10000 | 
25 | CC(=O)Nc1ccccc1-c1ccc2c(c1)Oc1ccccc1N2[C@H]1C[C@H]2CC[C@@H](C1)N2Cc1cccs1 [Compound 4x, Endo-N-{2-[10-(8-Thiophen-2-ylmethyl-8-aza-bicyclo[3.2.1]oct-3-yl)-10H-phenoxazin-3-yl]-phenyl}-acetamide] | 161 | 
26 | c1ccc(CN2[C@@H]3CC[C@H]2CC(N2c4ccccc4Sc4cc(-c5cccnc5)ccc42)C3)nc1 (mixture of isomers) [Compound 9i, 3-Pyridin-3-yl-10-(8-pyridin-2-ylmethyl-8-aza-bicyclo[3.2.1]oct-3-yl)-10H-phenothiazine] | 649 | 538
27 | CN1C2CCC1CC(N1c3ccccc3Oc3cc(-c4noc(=O)[nH]4)ccc31)C2 (stereo not drawn) [Compound 2h, 3-[10-(8-Methyl-8-aza-bicyclo[3.2.1]oct-3-yl)-10H-phenoxazin-3-yl]-4H-[1,2,4]oxadiazol-5-one] | 598 | 2890
28 | c1csc(CN2[C@@H]3CC[C@H]2C[C@@H](N2c4ccccc4Oc4cc(-c5ccncc5)ccc42)C3)c1 [Compound 6k, Endo-3-Pyridin-4-yl-10-(8-thiophen-2-ylmethyl-8-aza-bicyclo[3.2.1]oct-3-yl)-10H-phenoxazine] | 14200 | 
29 | CCN(CC)C(=O)c1ccc2c(c1)Oc1ccccc1N2[C@H]1C[C@H]2CC[C@@H](C1)N2CCc1ccccc1 [Compound 6t, Endo-10-(8-Phenethyl-8-aza-bicyclo[3.2.1]oct-3-yl)-10H-phenoxazine-3-carboxylic acid diethylamide] | 231 | 
30 | N#Cc1ccc2c(c1)Sc1ccccc1N2C1C[C@H]2CC[C@@H](C1)N2 (mixture of isomers) [Compound 1aa, 10-(8-Aza-bicyclo[3.2.1]oct-3-yl)-10H-phenothiazine-3-carbonitrile] | 931 | 
31 | c1ccc(CCN2[C@@H]3CC[C@H]2C[C@@H](N2c4ccccc4Oc4cc(-c5ccncc5)ccc42)C3)cc1 [Compound 3k, Endo-10-(8-Phenethyl-8-aza-bicyclo[3.2.1]oct-3-yl)-3-pyridin-4-yl-10H-phenoxazine] | 3390 | 
32 | c1ccc(CN2[C@@H]3CC[C@H]2C[C@@H](N2c4ccccc4Oc4cc(-c5ccncc5)ccc42)C3)nc1 [Compound 4k, Endo-3-Pyridin-4-yl-10-(8-pyridin-2-ylmethyl-8-aza-bicyclo[3.2.1]oct-3-yl)-10H-phenoxazine] | 445 | 
33 | c1cncc(-c2ccc3c(c2)Oc2ccccc2N3[C@@H]2C[C@H]3CC[C@@H](C2)N3)c1 [Compound 3l] | 729 | 
34 | c1cncc(-c2ccc3c(c2)Oc2ccccc2N3[C@H]2C[C@H]3CC[C@@H](C2)N3)c1 [Compound 5j, Endo-10-(8-Aza-bicyclo[3.2.1]oct-3-yl)-3-pyridin-3-yl-10H-phenoxazine] | 409 | 
